Experimental data reported in PubChem BioAssay (NCI).
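Five concentrations, 48 hours, 96-well plates. The concentration for 50% growth inhibition is given as GI50. TGI marks complete inhibition of growth.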

Tests used:
Assay in all cases: NCI anticancer screen, dose series, 48 h
786-0 renal = test system: 786-0 renal
MCF7 breast = test system: MCF7 breast
NCI-H226 lung = test system: NCI-H226 lung
OVCAR-5 ovarian = test system: OVCAR-5 ovarian
SN12C renal = test system: SN12C renal
SW-620 colon = test system: SW-620 colon
TK-10 renal = test system: TK-10 renal
UACC-62 melanoma = test system: UACC-62 melanoma

SMILES: CC1SC(c2ccc(Cl)cc2Cl)N(NC(=O)C(O)c2ccccc2)C1=O (stereo not drawn)
- GI50 (786-0 renal): > 100 µM
- TGI (786-0 renal): > 100 µM
- GI50 (MCF7 breast): 57 µM
- TGI (MCF7 breast): > 100 µM
- GI50 (NCI-H226 lung): 44.1 µM
- TGI (NCI-H226 lung): > 100 µM
- GI50 (OVCAR-5 ovarian): > 100 µM
- TGI (OVCAR-5 ovarian): > 100 µM
- GI50 (SN12C renal): 85.4 µM
- TGI (SN12C renal): > 100 µM
- GI50 (SW-620 colon): > 100 µM
- TGI (SW-620 colon): > 100 µM
- GI50 (TK-10 renal): 61.2 µM
- TGI (TK-10 renal): > 100 µM
- GI50 (UACC-62 melanoma): 24.2 µM
- TGI (UACC-62 melanoma): > 100 µM

SMILES: COc1cc(CNc2oc(-c3ccccc3)c(-c3ccccc3)c2C#N)cc(CN2CCN(C)CC2)c1O
- GI50 (786-0 renal): 1.68 µM
- TGI (786-0 renal): 3.21 µM
- GI50 (MCF7 breast): 1.46 µM
- TGI (MCF7 breast): 3.07 µM
- GI50 (NCI-H226 lung): 2.48 µM
- TGI (NCI-H226 lung): 6.75 µM
- GI50 (OVCAR-5 ovarian): 1.73 µM
- TGI (OVCAR-5 ovarian): 3.55 µM
- GI50 (SN12C renal): 3.95 µM
- TGI (SN12C renal): 15.3 µM
- GI50 (SW-620 colon): 1.72 µM
- TGI (SW-620 colon): 3.33 µM
- GI50 (TK-10 renal): 1.62 µM
- TGI (TK-10 renal): 3.34 µM
- GI50 (UACC-62 melanoma): 1.77 µM
- TGI (UACC-62 melanoma): 3.47 µM

SMILES: O=C(Nc1cccc(C(F)(F)F)c1)Oc1ccc(Cl)c2cccnc12
- GI50 (786-0 renal): 5.09 µM
- TGI (786-0 renal): 15.4 µM
- GI50 (MCF7 breast): 1.46 µM
- TGI (MCF7 breast): 6.77 µM
- GI50 (NCI-H226 lung): 2.25 µM
- TGI (NCI-H226 lung): 5.75 µM
- GI50 (OVCAR-5 ovarian): 3.6 µM
- TGI (OVCAR-5 ovarian): 18 µM
- GI50 (SN12C renal): 1.85 µM
- TGI (SN12C renal): 7.89 µM
- GI50 (SW-620 colon): 1.49 µM
- TGI (SW-620 colon): 12.9 µM
- GI50 (TK-10 renal): 4.1 µM
- TGI (TK-10 renal): 21.4 µM
- GI50 (UACC-62 melanoma): 1.15 µM
- TGI (UACC-62 melanoma): 3.57 µM

SMILES: Nc1ccc(/C=C/c2ccc3cccnc3c2)cc1
- TGI (786-0 renal): > 100 µM
- TGI (MCF7 breast): > 100 µM
- TGI (NCI-H226 lung): > 100 µM
- TGI (OVCAR-5 ovarian): > 100 µM
- TGI (SN12C renal): > 100 µM
- TGI (SW-620 colon): > 100 µM
- TGI (TK-10 renal): > 100 µM
- TGI (UACC-62 melanoma): > 100 µM

SMILES: CC(SCc1ccccc1)C(=O)O (stereo not drawn)
- TGI (786-0 renal): > 100 µM
- TGI (MCF7 breast): > 100 µM
- TGI (NCI-H226 lung): > 100 µM
- TGI (OVCAR-5 ovarian): > 100 µM
- TGI (SN12C renal): > 100 µM
- TGI (SW-620 colon): > 100 µM
- TGI (TK-10 renal): > 100 µM
- TGI (UACC-62 melanoma): > 100 µM

SMILES: O=c1[nH]c(=O)n(C2CC(O)C(CO)O2)cc1C(F)(F)F (stereo not drawn)
- GI50 (786-0 renal): 0.464 µM
- GI50 (MCF7 breast): 0.038 µM
- GI50 (NCI-H226 lung): 20.7 µM
- TGI (NCI-H226 lung): > 100 µM
- GI50 (OVCAR-5 ovarian): > 100 µM
- TGI (OVCAR-5 ovarian): > 100 µM
- GI50 (SN12C renal): 3.8 µM
- TGI (SN12C renal): > 100 µM
- GI50 (SW-620 colon): 9.78 µM
- TGI (SW-620 colon): > 100 µM
- GI50 (TK-10 renal): > 100 µM
- TGI (TK-10 renal): > 100 µM
- GI50 (UACC-62 melanoma): 2.59 µM
- TGI (UACC-62 melanoma): > 91.8 µM
